Results published in patent US12036190B2, “Methods and compositions for the treatment of cytoplasmic glycogen storage disorders” (Duke University, priority 2015, dated 2024).
Several values for one entry are separate records, joined by “and”; a condition that tells them apart may be missing. Identical values can stand only once. Entries after “also recorded” stand apart in the source; their conditions may differ.

Key:
[1] = test system: G6pc−/− mice; experiment: Rapamycin treatment of GSD Ia (G6pc−/−) mice; assay type: in vivo; details: GSD Ia mouse livers, which began at 7-fold the levels of wildtype livers
Experimental: Candidate drugs for restoring autophagy in the GSD Ia liver were evaluated. Rapamycin is known to both have potent effects on activating autophagy as an mTORC1 inhibitor, and to regulate lipid metabolism due to its effect upon mTORC1. GSD Ia mice were treated with rapamycin daily for 7 days prior to evaluating effects upon autophagy and lipid accumulation in the liver.
G6pc−/− mice were given intraperitoneal injections of 5 mg/kg rapamycin suspended in 10% DMSO/90% PBS daily for 7 days starting on day 5 of life.
Treatment was sufficient to normalize G6pc−/− mice to the naturally low WT triglyceride levels.
Hepatic glycogen content was further analyzed using PAS staining to stain for polysaccharides, including glycogen, in liver sections. […] This confirms our hypothesis that manipulating autophagy can reduce glycogen accumulation by breaking it down through alternate routes from the traditional one relying on G6Pase, bypassing the need for G6Pase in GSD Ia hepatocytes.

[2] = test system: primary muscle cells from GSD IIIa patients; experiment: rhGAA on primary muscle cells from GSD IIIa patients; assay type: cell-based, human; details: GSD IIIa patient muscle cells
Experimental: FIG. 32 illustrates an analysis of the skeletal muscle biopsies from two GSD IIIa patients, a person (Pt. 1) and a person (Pt. 2). […] (FIG. 32B) Under EM, occasional lysosomal glycogen 1 (identified at the end of arrow) was also seen in the myocytes (scale bar=1 μm). […] (FIG. 32E) GAA activity in normal and patient cells 48 h after adding recombinant human acid alpha-glucosidase (rhGAA, Myozyme*, alglucosidase alfa) treatment. […] The significance of differences between two different groups was assessed using the two-tailed, equal variance student T-test ([…]).

[3] = test system: GSD III mice; experiment: rhGAA enzyme replacement therapy in GSD III mice; assay type: in vivo, mouse
Experimental: (§1) Methods: GSD III mice were used to test 3 dosages to determine the minimum effective dose (MED) of rhGAA treatment: 20 mg/kg (n=6), 40 mg/kg (n=5), and 100 mg/kg (n=7). Weekly intravenous injections of rhGAA were conducted for 4 week starting at age of 10 weeks. A group of age-matched untreated mice (n=8) were used as controls. To prevent anaphylactic reactions, the animals were administered 25 mg/kg diphenhydramine (i.p.) 10-15 min prior to enzyme administration. All mice were sacrificed 48 hours after the last injection following overnight fasting. Fresh tissues were immediately frozen and stored at −80° C. until use for GAA activity and glycogen content analyses. Protein concentration was measured using BCA method.

[4] = test system: primary myoblasts from GSD IV mice; experiment: rhGAA on primary myoblasts from GSD IV mice; assay type: cell-based, mouse
Experimental: Primary myoblast cells were isolated from 7-day-old GSD IV mouse skeletal muscle. Early passage cells were seeded in 10-cm culture dishes with EMEM medium containing 10% FBS. When cells reached 90% confluence, rhGAA was added to the culture medium (final activity=1000 nmol/hr/ml). […]
Reduction of glycogen deposition in GSD IV mouse myoblasts by rhGAA treatment was also confirmed by immunofluorescence staining using a mouse anti-glycogen monoclonal antibody ESG1A9mAb.

[5] = test system: patient with PRKAG2 pathogenic gene mutation; experiment: Alglucosidase alfa ERT in a patient with PRKAG2 mutation; assay type: in vivo, human
From the text: A patient was born by caesarian section at 38 weeks gestation as a result of the nuchal cord being wrapped around their neck. The patient was noted to have hypotonia and generalized muscle weakness. They were are flexic and had feeding difficulties. The patient began developing severe lower respiratory infections which led to frequent admissions to the hospital. […] Following numerous recurrent pneumonias, and the history of muscle weakness, the patient's physicians raised Pompe disease as a potential diagnosis. […] Given the early findings of hypotonia and the low GAA enzyme activity, a diagnosis of non-classic infantile Pompe disease was made. The patient was initiated on ERT with alglucosdase alfa at a dose of 20 mg/kg every 2 weeks.
[…], the patient started ERT. They were belly crawling asymmetrically and was unable to achieve sitting from a prone or supine position. Due to weakness in their neck and trunk flexors, the patient consistently sat with their trunk completely collapsed in kyphotic position and their head propped up in capital extension in a chin poke position. […] They were able to crawl more efficiently, to achieve sitting independently from a prone or supine position, and to pull themself up into a standing posture without aid. […] […], the patient was able to walk independently with an age appropriate gait pattern and to climb small steps as well as jump off them without support. They were also able to transition independently into and out of any position, which helped them participate more fully in activities appropriate for their age.
Baseline assessments were done which included tests for AST (44 IU/L; normal range: <45 IU/L), ALT (20 IU/L; normal range: 9-80 IU/L), along with PT measures looking at muscle strength and function measures. […] Upon examination, the patient has developed more defined calf muscles, along with an improvement of […] strength and power. […] has grown physically stronger and has not had episodes in which […] lacks energy for consecutive days, becomes completely floppy, and is unable to hold their head up properly following a seizure.
At baseline, according to the MABC assessment, the patient achieved a Total Test Score of 68 ranking them in the 25th percentile. Five months after reinitiation of ERT, the patient achieved a Total Test Score of 73 on […] MABC assessment, ranking them in the 37th percentile. A minimal detectable change (MDC) for the MABC has been reported as 1.21 points, representing a true change in motor function. The results in this child show an increase of 5 points over 5 months, which is greater than the minimal important difference (MID) of the MABC, which has been reported as a change of 2.5 points shown over 6 months.

[6] = test system: GSD IV mice; experiment: rhGAA enzyme replacement therapy in GSD IV mice; assay type: in vivo, mouse
Experimental: as §1, with “A short-term study was conducted” for “GSD III mice were used to test 3 dosages”, “treatment with 3 dosages:” for “treatment:”, “(human equivalent dose, n=6),” for “(n=6),”, “(n=9),” for “(n=5),”, “(n=8). Male GSD IV mice received weekly” for “(n=7). Weekly”

[7] = weekly for 4 weeks at 20, 40 or 100 mg/kg, data not shown
[8] = rhGAA 1000 nmol/hr/ml, 24 hours
[9] = reassessment 5 months post ERT, initial 3

## CO[C@H]1C[C@@H]2CC[C@@H](C)[C@@](O)(O2)C(=O)C(=O)N2CCCC[C@H]2C(=O)O[C@H]([C@H](C)C[C@@H]2CC[C@@H](O)[C@H](OC)C2)CC(=O)[C@H](C)/C=C(\C)[C@@H](O)[C@@H](OC)C(=O)[C@H](C)C[C@H](C)/C=C/C=C/C=C/1C [Rapamycin, rapamycin]
[1]
  reduction of hepatic triglycerides: 50%

## rhGAA: recombinant human acid alpha-glucosidase (rhGAA, Myozyme, alglucosidase alfa), FDA approved therapy for Pompe disease
[2]
  glycogen content: significantly reduced glycogen levels; also recorded: significantly reduced glycogen content; also recorded: significantly reduced glycogen concentration
[3]; 20 mg treatment
  glycogen content in tissues: did not affect glycogen content in any tissues
[3]; 40 mg and 100 mg treatment
  decrease of liver glycogen: 24-25%
[3]; 40 mg and 100 mg treatments
  glycogen content in heart: significantly reduced glycogen contents
  glycogen content in liver: significantly reduced glycogen contents
  ratio of liver/body weight: reduced ratio of liver/body weight
[3]; weekly IV for 4 weeks
  GAA enzyme uptake, order of GAA activity by tissue: liver>heart>diaphragm>leg muscles
[3]; [7]
  anti-GAA antibodies compared with those reported in GAA-KO mice: significantly less
[4]; 4 hours
  reduction of glycogen (immunofluorescence, ESG1A9mAb): obvious
[4]; 24 hours
  reduction of glycogen (immunofluorescence, ESG1A9mAb): more evident
[4]; [8]
  decrease of glycogen content: 24%
  increase of GAA activity: 50%
[4]; versus untreated cells
  glycogen content: significantly reduced glycogen content; also recorded: significantly (p<0.01) reduced
[5]; after five months of reinitiated ERT
  neurological, occupational therapy and physical therapy reports: significant improvement
[5]; first ERT course, 20 mg/kg every 2 weeks, three months after initiation
  gross motor abilities: began improving
[5]; over 5 months of ERT
  Movement ABC increase of Total Score: 5 points
  Movement ABC percentile increase: 12
[5]; re-assessment 5 months on ERT, pre-ERT 25th percentile
  Movement ABC Percentile: 37 percentile and 37th percentile
[5]; re-assessment 5 months on ERT, pre-ERT 68
  Movement ABC Total Score: 73
[5]; [9]
  M-FUN Fine Motor Scaled Score: 5 (considered mild/borderline
  M-FUN Gross Motor Scaled Score: 3 (considered very low/severe
[5]; reassessment 5 months post ERT, initial 6
  M-FUN Visual Motor Scaled Score: 9 (considered “average” or
[5]; reassessment 5 months post ERT, initial 288
  M-FUN Gross Motor Progress Score: 407
[5]; reassessment 5 months post ERT, initial 292
  M-FUN Fine Motor Progress Score: 394
[5]; reassessment 5 months post ERT, initial 374
  M-FUN Visual Motor Progress Score: 496
[5]; reassessment at five months of ERT
  fatigue at assessment: less fatigue
[6]; 20 mg/kg
  GAA activity in heart, increase: 1.7 fold
  glycogen content in tissues: failed to reduce glycogen in any tissue; also recorded: not significant
[6]; 20 mg/kg weekly IV for 4 weeks
  GAA activity in liver, increase over untreated controls: 29 folds
[6]; 40 mg and 100 mg treatment
  decrease of liver glycogen: 21-25%
[6]; 40 mg/kg
  GAA activity in heart, increase: 2.8 fold
  change of glycogen content in liver: −21%
[6]; 40 mg/kg weekly IV for 4 weeks
  GAA activity in liver, increase over untreated controls: 48 folds
[6]; 40 mg/kg, untreated 5.8±0.2%, p<0.05
  liver/body weight ratio: 5.0±0.2%
[6]; 40 mg/kg, untreated 1029±87 U/L, p<0.01
  plasma alanine aminotransferase (ALT): 650±32 U/L
[6]; 40 mg/kg, untreated 1059±93 U/L, p=0.074
  plasma aspartate aminotransferase (AST): 849±50 U/L
[6]; 100 mg/kg
  GAA activity in skeletal muscles, increase: 1.6 folds
  change of glycogen content in liver: −25%
[6]; 100 mg/kg weekly IV for 4 weeks
  GAA activity in liver, increase over untreated controls: 67 folds
[6]; 40 and 100 mg/kg
  glycogen content in skeletal muscle: not in any skeletal muscle
[6]; either dosage (20, 40 mg/kg)
  GAA activity in quadriceps, increase: negligible
[6]; either treated group (20, 40 mg/kg)
  GAA activity in gastrocnemius, increase: less than 1 fold
[6]; [7]
  anti-GAA antibodies compared with those reported in GAA-KO mice: significantly less
